We go through eight compounds from patent US8236833B2, “Biphenyl derivatives as modulators of voltage gated ion channels” (Vertex Pharmaceuticals Incorporated, priority 2005, dated 2012).

Read-outs that look alike come from different tables or passages of the source.

As a reminder, the IC50 is the concentration needed to halve the response being measured.

In assay [1] the test system is voltage-gated sodium ion channels. As to the kind of experiment: Assays for detecting and measuring NaV inhibition properties of compounds (Table 3 activity data; the specific assay and subtype are not stated). The format is cell-based.
In assay [2] the test system is neuropathic pain. Particulars: in vivo; cited from earlier work.
For assay [3], the target named is NaV1.3 (Homo sapiens, UniProt Q9NY46). Particulars: read-out: TTX IC50; cited from earlier work.
The target of assay [4] is NaV1.8 (Homo sapiens, UniProt Q9Y5Y9). The conditions noted are these: read-out: TTX IC50; cited from earlier work.
Assay [5] has as its target NaV1.6 (Homo sapiens, UniProt Q9UQD0). Particulars: read-out: TTX IC50; cited from earlier work.
Assay [6] addresses NaV1.1 (Homo sapiens, UniProt P35498). Particulars: read-out: TTX IC50; cited from earlier work.
In assay [7] the target is NaV1.9 (Homo sapiens, UniProt Q9UI33). Particulars: read-out: TTX IC50; cited from earlier work.
Where [8] appears, read: activity data for selected compounds, NaV subtype not stated, read-out: IC50.

NaV1.9, sequence (Q9UI33 whole entry, looked up): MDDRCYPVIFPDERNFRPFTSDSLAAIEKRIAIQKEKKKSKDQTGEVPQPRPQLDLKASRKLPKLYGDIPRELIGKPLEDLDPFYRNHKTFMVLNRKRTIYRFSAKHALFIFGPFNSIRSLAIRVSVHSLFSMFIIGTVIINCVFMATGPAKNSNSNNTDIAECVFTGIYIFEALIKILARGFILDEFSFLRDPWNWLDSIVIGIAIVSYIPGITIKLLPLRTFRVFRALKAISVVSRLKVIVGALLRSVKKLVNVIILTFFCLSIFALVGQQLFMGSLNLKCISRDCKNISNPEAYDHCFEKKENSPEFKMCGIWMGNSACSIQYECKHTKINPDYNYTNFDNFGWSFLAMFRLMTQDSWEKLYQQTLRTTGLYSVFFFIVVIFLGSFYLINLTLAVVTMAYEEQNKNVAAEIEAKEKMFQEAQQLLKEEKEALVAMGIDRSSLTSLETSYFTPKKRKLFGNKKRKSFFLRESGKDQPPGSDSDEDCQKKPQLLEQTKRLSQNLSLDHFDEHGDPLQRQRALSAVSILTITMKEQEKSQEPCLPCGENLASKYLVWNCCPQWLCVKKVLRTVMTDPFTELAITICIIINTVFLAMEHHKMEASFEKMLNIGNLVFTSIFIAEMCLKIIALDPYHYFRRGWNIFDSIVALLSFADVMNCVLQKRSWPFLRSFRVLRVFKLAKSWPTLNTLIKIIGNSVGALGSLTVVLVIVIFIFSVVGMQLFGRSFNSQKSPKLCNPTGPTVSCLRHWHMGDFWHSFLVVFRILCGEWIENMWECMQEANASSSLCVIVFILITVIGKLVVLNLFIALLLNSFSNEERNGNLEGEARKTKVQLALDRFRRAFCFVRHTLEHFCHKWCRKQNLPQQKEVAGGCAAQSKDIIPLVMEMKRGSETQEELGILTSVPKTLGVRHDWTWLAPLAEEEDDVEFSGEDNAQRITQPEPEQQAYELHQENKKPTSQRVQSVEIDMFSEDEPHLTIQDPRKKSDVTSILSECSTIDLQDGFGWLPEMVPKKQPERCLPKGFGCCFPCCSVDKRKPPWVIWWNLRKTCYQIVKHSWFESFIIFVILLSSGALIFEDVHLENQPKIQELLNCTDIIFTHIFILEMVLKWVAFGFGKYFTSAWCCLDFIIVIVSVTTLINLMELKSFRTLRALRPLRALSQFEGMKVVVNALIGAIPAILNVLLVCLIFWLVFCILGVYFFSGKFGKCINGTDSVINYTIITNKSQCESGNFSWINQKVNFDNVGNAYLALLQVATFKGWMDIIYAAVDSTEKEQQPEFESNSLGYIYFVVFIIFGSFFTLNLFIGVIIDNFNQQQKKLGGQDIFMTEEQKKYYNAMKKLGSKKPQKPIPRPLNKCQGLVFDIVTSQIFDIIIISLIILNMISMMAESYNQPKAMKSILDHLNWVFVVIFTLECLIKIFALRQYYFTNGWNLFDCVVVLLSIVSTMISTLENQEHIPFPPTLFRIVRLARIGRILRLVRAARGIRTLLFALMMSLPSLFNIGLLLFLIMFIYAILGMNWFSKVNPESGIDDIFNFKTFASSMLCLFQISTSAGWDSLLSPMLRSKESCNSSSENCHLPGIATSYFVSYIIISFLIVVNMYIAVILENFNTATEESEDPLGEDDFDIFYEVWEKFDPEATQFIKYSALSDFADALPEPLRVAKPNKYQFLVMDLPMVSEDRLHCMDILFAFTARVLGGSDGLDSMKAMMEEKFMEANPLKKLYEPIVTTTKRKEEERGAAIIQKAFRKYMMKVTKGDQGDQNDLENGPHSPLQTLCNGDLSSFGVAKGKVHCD
NaV1.3, sequence (Q9NY46 whole entry, looked up): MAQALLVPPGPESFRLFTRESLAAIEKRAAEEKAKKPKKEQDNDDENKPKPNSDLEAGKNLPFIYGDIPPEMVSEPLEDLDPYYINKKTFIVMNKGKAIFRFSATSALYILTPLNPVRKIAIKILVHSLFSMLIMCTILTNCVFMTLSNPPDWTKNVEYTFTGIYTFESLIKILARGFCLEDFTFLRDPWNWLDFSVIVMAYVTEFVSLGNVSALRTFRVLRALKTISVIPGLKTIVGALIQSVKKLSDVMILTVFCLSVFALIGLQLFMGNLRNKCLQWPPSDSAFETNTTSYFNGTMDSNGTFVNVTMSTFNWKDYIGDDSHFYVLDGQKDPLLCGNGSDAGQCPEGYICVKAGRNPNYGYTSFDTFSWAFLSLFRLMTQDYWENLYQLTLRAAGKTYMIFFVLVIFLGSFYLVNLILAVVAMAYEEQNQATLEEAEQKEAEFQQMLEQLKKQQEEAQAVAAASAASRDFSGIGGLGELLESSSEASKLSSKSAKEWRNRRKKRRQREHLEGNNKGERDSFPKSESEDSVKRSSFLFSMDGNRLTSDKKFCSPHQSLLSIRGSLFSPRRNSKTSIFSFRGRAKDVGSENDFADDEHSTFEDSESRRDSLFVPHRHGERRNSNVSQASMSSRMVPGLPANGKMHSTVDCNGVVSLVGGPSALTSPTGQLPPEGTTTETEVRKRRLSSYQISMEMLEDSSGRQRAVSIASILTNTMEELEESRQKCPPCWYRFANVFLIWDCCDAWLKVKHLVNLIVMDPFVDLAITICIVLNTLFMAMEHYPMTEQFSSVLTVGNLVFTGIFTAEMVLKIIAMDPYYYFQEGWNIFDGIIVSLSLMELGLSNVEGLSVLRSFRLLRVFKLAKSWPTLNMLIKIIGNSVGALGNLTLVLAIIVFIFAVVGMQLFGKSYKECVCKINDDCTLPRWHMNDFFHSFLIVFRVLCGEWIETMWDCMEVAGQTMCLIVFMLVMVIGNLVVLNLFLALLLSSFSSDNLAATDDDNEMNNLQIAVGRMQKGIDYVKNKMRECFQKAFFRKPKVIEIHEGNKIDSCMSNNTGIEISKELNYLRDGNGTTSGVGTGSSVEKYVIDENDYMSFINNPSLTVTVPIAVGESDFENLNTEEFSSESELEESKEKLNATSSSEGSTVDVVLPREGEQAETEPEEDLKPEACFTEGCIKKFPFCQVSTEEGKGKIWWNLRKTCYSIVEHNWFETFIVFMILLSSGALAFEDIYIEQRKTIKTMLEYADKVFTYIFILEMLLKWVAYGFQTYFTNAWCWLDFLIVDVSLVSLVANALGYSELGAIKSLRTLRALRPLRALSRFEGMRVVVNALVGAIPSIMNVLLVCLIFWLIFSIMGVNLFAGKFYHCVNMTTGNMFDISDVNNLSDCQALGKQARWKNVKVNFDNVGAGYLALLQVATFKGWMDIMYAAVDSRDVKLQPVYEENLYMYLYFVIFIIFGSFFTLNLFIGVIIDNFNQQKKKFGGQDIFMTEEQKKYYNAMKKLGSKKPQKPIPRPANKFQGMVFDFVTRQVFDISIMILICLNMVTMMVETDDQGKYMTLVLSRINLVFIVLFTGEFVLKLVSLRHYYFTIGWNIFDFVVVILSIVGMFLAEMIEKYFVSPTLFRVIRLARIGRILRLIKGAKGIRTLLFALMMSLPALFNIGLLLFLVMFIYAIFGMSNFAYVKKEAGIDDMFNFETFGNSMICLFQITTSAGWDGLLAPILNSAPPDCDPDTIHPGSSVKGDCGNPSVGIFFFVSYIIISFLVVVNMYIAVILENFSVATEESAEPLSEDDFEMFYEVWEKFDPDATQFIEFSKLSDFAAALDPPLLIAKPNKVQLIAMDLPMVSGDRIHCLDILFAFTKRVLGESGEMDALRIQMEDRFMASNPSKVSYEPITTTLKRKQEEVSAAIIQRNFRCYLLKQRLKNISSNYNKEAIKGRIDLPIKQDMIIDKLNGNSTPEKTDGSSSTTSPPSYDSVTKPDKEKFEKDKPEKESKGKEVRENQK

With `C[C@@H](C(=O)Nc1ccc(-c2ccc(S(=O)(=O)Nc3nccs3)cc2)cc1)n1ccc2c(F)cccc21` [Compound 6, (S)-2-(4-Fluoro-indol-1-yl)-N-[4′-(thiazol-2-ylsulfamoyl)-biphenyl-4-yl]-propionamide], the IC50 in assay [1] (setting [8]) is less than 1 µM.

Take `NCC1(CC(=O)O)CCCCC1` [Gabapentin]: in assay [2], the “share of patients in which it works” value is recorded as 60%.

On to `NC1=N[C@H](O)[C@H]2[C@H]3O[C@]4(O)O[C@@H]([C@@H](O)[C@@]2(N1)[C@@H]4O)[C@]3(O)CO` [TTX, tetrodotoxin], for which the IC50 is 0.015 µM in assay [3]; more than 50 µM in assay [4]; 0.006 µM in assay [5]; 0.01 µM in assay [6]; 1 µM in assay [7].

Turning to `O=C(COc1ccc(Cl)cc1)Nc1ccc(-c2ccc(S(=O)(=O)Nc3nccs3)cc2)cc1` [Compound 1], the concentration for half-maximal inhibition (IC50) in assay [1] (setting [8]) was 1 to 5 µM.

Consider `O=C(COc1ccnc2c(C(F)(F)F)cccc12)Nc1ccc(-c2ccc(S(=O)(=O)Nc3nccs3)cc2)cc1` [Compound 4, N-[4′-(Thiazol-2-ylsulfamoyl)-biphenyl-4-yl]-2-(8-trifluoromethyl-quinolin-4-yloxy)-acetamide], for which, in assay [1] (setting [8]), the IC50 was more than 5 µM.

`O=C(COc1cccc(Cl)c1)Nc1ccc(-c2ccc(S(=O)(=O)Nc3nccs3)cc2)cc1` [Compound 5, 2-(3-Chloro-phenoxy)-N-[4′-(thiazol-2-ylsulfamoyl)-biphenyl-4-yl]-acetamide]: the IC50 in assay [1] (setting [8]) fell in the range of 1 to 5 µM.

In turn, `COc1cccc(CC(=O)Nc2ccc(-c3ccc(S(=O)(=O)Nc4nccs4)cc3)cc2)c1` [Compound 2] had an IC50 in assay [1] of more than 5 µM.

The compound `O=C(Nc1ccc(-c2ccc(S(=O)(=O)Nc3nccs3)cc2)cc1)c1ccccc1F` [Compound 3] came in with an IC50 in assay [1] of 1 to 5 µM.
